Assay results taken from patent US20140309296A1, “BUDIODARONE FORMULATIONS” (Armetheon, Inc., priority 2013, published 2014).
“And” between values parts separate entries of the source, which are not always exact repeats. Equal values may be shown once. Read-outs that look alike come from different tables or passages of the source.

Tests used:
[1] = cited from earlier work
[2] = system: subjects with paroxysmal atrial fibrillation who had implanted pacemakers; conditions: cited from earlier work
[3] = system: patients with paroxysmal atrial fibrillation (PAF); conditions: cited from earlier work
[4] = Lower-limit ratio for soluble benzyl alcohol and budiodarone compositions in water (Example 6); assay type: physicochemical; conditions: 25, 50 and 100 mg/ml, introduced ratios 0.8 to 4.9, 24 hours in the dark, room temperature
Method: Three series of 20-ml screw-cap glass vials were prepared as described in Tables 5 to 7. Budiodarone tartrate was added to the empty vials, followed by water, and then benzyl alcohol was added. The vials were capped and the mixtures were vortexed for three times 10 seconds. The vials were then left in the dark for 24 hours and were then analyzed as described above using HPLC Conditions 2 and 3.
In FIG. 4, the approximately 5/1 lower-limit molar ratio is constant over a wide range of budiodarone concentrations, at least between budiodarone concentrations of 25 mg/ml and 100 mg/ml. The resulting ratios in solution, following 24-hour in the dark, were calculated from HPLC analysis data and were plotted versus the actual ratios introduced into the vials. Each point represents the mean findings of the three concentrations (25 mg/ml, 50 mg/ml, and 100 mg/ml)+/−standard deviation. […] This association takes place even when the original ratio introduced into the vial is as low as 0.8/1. Presumably the 5/1 ratio is an optimum molar ratio allowing for the optimum balance of repulsive ionic forces and attractive van der Waals forces between water molecules and the budiodarone/benzyl alcohol complex. […]

[5] = Low ratio of benzyl alcohol to budiodarone in water and 5% dextrose solution, stability (Example 9); assay type: physicochemical; conditions: 2.14/1 molar ratio, 25 mg/ml, room temperature
Method: The methanol was evaporated at 36° C. under partial vacuum (30 mmHg) to yield a thin film. To this residue was added 5 ml of water. The sample was then vortexed and a clear 25 mg/ml solution of budiodarone tartrate was obtained. A small aliquot was diluted 25 times with methanol and analyzed by HPLC (Sample 1). To the flask was then added 250 mg of D-(+)-glucose (also known as dextrose), resulting in a clear solution of 25 mg/ml budiodarone tartrate in 5% dextrose (D5W). A small sample was analyzed by HPLC (Sample 2).
Sample 2 is then analyzed over time to check physical and/or chemical stability in solution (Table 9).

[6] = system: sodium, potassium, and calcium ion channels; conditions: animals; cited from earlier work
[7] = system: patients with paroxysmal atrial fibrillation (PAF); conditions: 12 weeks, cited from earlier work; for median reduction in AFB: compared to placebo
[8] = Pre-formed 3/1 benzyl alcohol/budiodarone composition, solubility in water (Example 7); assay type: physicochemical; conditions: 25 mg/ml budiodarone, 0.92% (v/v) benzyl alcohol, pre-mixed before water is added
Method: A clear solution containing 25 mg/ml of budiodarone and 0.92% (v/v) of benzyl alcohol (molar ratio of 3/1) was prepared. In this example, the association between budiodarone and benzyl alcohol was pre-formed before water is added.
Methanol (5 ml), budiodarone tartrate (250 mg, 0.293 mmole), and benzyl alcohol (92 μl, 0.880 mmole) were mixed. In this mixture, the molar ratio of benzyl alcohol to budiodarone was 3/1. Methanol was removed at 36° C. under partial vacuum (30 mm Hg) to form a clear oily residue. The residue was left at room temperature under high vacuum (1 mmHg) for 1 hour to remove traces of methanol. Water (10 ml), is then added, and the sample is vortexed for 3×10 sec.
In order to confirm the solubility of budiodarone and the molar ratio between benzyl alcohol and budiodarone, the sample was analyzed by HPLC. The analysis was performed immediately after preparation of the solution. An aliquot of the solution was centrifuged as described above in order to remove insoluble material.

[9] = cited from earlier work; remark: listed apart in the source
[10] = 600 mg BID, Treatment Months 1-3, ITT
[11] = 600 mg BID, Treatment Months 1-3, mITT

SMILES: CC[C@H](C)OC(=O)Cc1oc2ccccc2c1C(=O)c1cc(I)c(OCCN(CC)CC)c(I)c1 [budiodarone, (1S)-1-methylpropyl 2-(3-{4-[2-(diethylamino)ethoxy]-3,5-diiodobenzoyl}benzofuran-2-yl)acetate]
- Mean trough level ([1]; 200 mg bid oral): 2.4 ± 0.9 ng/mL
- Mean trough level ([1]; 400 mg bid oral): 5.2 ± 1.7 ng/mL
- Mean trough level ([1]; 600 mg bid oral): 13.1 ± 5.6 ng/mL
- Mean trough level ([1]; 800 mg bid oral): 19.8 ± 17.9 ng/mL
- trough level ([1]; washout): 0.3+0.4 ng/mL
- mean AFB (SD) ([2]; 200 mg bid): 5.2 ± 4.2%
- mean AFB (SD) ([2]; 400 mg bid): 5.2+5.2%
- mean AFB (SD) ([2]; 600 mg bid): 2.8+3.4%
- mean AFB (SD) ([2]; 800 mg bid): 1.5 ± 0.5%
- decrease in AFB ([2]; at all doses (200 to 800 mg bid)): at least 70%
- Mean episode duration (SD) ([2]; p2 (200 mg bid)): 1.7+2.5 h
- relative reduction (RR) in AFB from baseline ([2]; p2 (200 mg bid)): 71.2 ± 31.3%
- Mean episode duration (SD) ([2]; p3 (400 mg bid)): 0.6+0.7 h
- relative reduction (RR) in AFB from baseline ([2]; p3 (400 mg bid)): 71.7 ± 20.6%
- Mean episode duration (SD) ([2]; p4 (600 mg bid)): 0.1+0.2 h
- relative reduction (RR) in AFB from baseline ([2]; p4 (600 mg bid)): 79.9 ± 26.4%
- Mean episode duration (SD) ([2]; p5 (800 mg bid)): 0.5+0.7 h
- relative reduction (RR) in AFB from baseline ([2]; p5 (800 mg bid)): 86.8 ± 9.8%
- number of AF episodes ([2]; treatment periods and washout): increased initially
- Mean episode duration (SD) ([2]; washout): 2.4+3.0 h
- mean AFB (SD) ([2]; washout): 11.7+14.0%
- decrease in AFB ([3]; 200 mg BID, mITT population, not statistically significant): 10%
- median percent reduction from baseline in AT/AF burden ([3]; 400 mg BID, Treatment Months 1-3, ITT population): 54%
- median percent reduction from baseline in AT/AF burden ([3]; 400 mg BID, Treatment Months 1-3, mITT population): 54%
- median percent reduction in AT/AF burden ([3]; 600 mg BID, Treatment Month 3, ITT population, listed as ATI-2042): 80% and 83%
- median percent reduction in AT/AF burden ([3]; 600 mg BID, Treatment Month 3, mITT population): 83%
- median percent reduction from baseline in AT/AF burden ([3]; 600 mg BID, Treatment Months 1-3, ITT population): 74%
- median percent change from baseline in duration of AT/AF episodes [3, 10]: −51.3%
- median percent change from baseline in the number of AT/AF episodes [3, 10]: −52.9%
- median percent increase in the duration of NSR [3, 10]: 208.8%
- median percent reduction from baseline in AT/AF burden ([3]; 600 mg BID, Treatment Months 1-3, mITT population): 75%
- median percent change from baseline in duration of AT/AF episodes [3, 11]: −51.3%
- median percent change from baseline in the number of AT/AF episodes [3, 11]: −62.1%
- median percent increase in the duration of NSR [3, 11]: 241.8%
- decrease in number of AT/AF episodes (median percent change from baseline, FIG. 12) ([3]; 600 mg BID, all three treatment months): more than 60%
- decrease in duration of episodes (FIG. 12) ([3]; 600 mg BID, treatment month 1): more than 50%
- decrease in duration of episodes (FIG. 12) ([3]; 600 mg BID, treatment month 2): more than 70%
- decrease in duration of episodes (FIG. 12) ([3]; 600 mg BID, treatment month 3): ~70%
- mean episode duration (FIG. 13) ([3]; 600 mg, down from nearly 24): less than 1 hour
- median AF episode duration ([3]; 600 mg, month 3): 0
- reduction of number and duration of AF episodes below baseline (FIG. 12) ([3]; 600 mg): about 70%
- patients a lot or completely satisfied with the test medication (Patient GCI Scale) ([3]; ITT population, dose group not stated): 60.0%
- patients reporting a lot of improvement or complete relief (Patient GCI Scale) ([3]; dose group not stated): 46.7%
- AFB after washout ([3]; each of the three dose groups, one-month washout period): returned to essentially the baseline values
- lower-limit molar ratio of benzyl alcohol to budiodarone in solution [4]: approximately 5/1
- time for which the low molar ratio is stable in D5W [5]: about 120 hours
- atrial effects [6]: increased St-A and A-H intervals
- inhibition of sodium, potassium, and calcium ion channels [6]: inhibition comparable with amiodarone
- left and right atrial refractoriness [6]: increased left and right atrial refractoriness comparable with amiodarone
- ventricular effects [6]: increased MAPD90 and QT-interval
- median reduction in AFB ([7]; 400 mg BID): 54.4%
- median reduction in AFB ([7]; 600 mg BID): 75.5%
- median reduction in AFB ([7]; 600 mg BID, listed as Budiodarone): up to 75.5%
- safety ([7]; 200, 400 or 600 mg BID): no drug-related SAEs
- solubility in water of pre-formed 3/1 molar ratio [8]: water soluble
- PR interval, reduction from baseline ([9]; 200 mg bid): 16.6+23.9%
- PR interval, reduction from baseline ([9]; 400 mg bid): 11.4+22.6%
- PR interval, reduction from baseline ([9]; 600 mg bid): 27.0+32.1%
- PR interval, reduction from baseline ([9]; 800 mg bid): 35.1 ± 30.9%
- proarrhythmia, clinical hypothyroidism, or hyperthyroidism ([9]; 200 to 800 mg bid): no cases
- serious AEs ([9]; 200 to 800 mg bid): no serious AEs related to study drug
- tolerability ([9]; 200 to 800 mg bid): generally well tolerated
- changes in HR, QRS, QT, or QTc ([9]; between baseline and dosing or washout): no significant changes
- thyroid-stimulating hormone ([9]; three patients, outside the normal range): dose-responsive increases
- PR interval, reduction from baseline ([9]; washout): 30.7 ± 24.3%
